Measurements from ChEMBL document CHEMBL1149230, “Long chain amines and long chain ammonium salts as novel inhibitors of dynamin GTPase activity” (Bioorg Med Chem Lett, 2004).
Activity calls are given as the source filed them. The rule behind the calls is not given here.

Legend:
[1] = organism: Ovis aries; assay: Compound was tested for its ability to inhibit Dynamin-1 GTPase activity of sheep brain at 30 uM; NE=No effect
[2] = organism: Ovis aries; assay: Compound was tested for its ability to inhibit Dynamin-1 GTPase activity of sheep brain; Increased activity; assay type: tissue-based
[3] = organism: Ovis aries; assay: Concentration required against Dynamin-1 GTPase activity of sheep brain at 3 uM; assay type: tissue-based

SMILES: CCCC/C=C\C/C=C\C/C=C\C/C=C\CCCC(=O)OCC(O)CO (stereo not drawn)
- Activity [1]: inactive
- Concentration [2]: 300 µM
- inhibition [3]: 70%
